Reference: patent US12491202B2, “Phospholipid ether analogs for imaging and targeted treatment of pediatric solid tumors” (Wisconsin Alumni Research Foundation, priority 2016, dated 2025)

How the values were obtained:
[1] = test system: normal human pediatric fibroblast (HUFI) cells; test: CLR1501 uptake by flow cytometry in normal fibroblasts; format: cell-based; details: 5 μM, 16-19 hours incubation; compared with pediatric tumor cell lines
Source text: (§1) FIG. 4 is a bar graph illustrating the preferential uptake of CLR1501, a fluorescent derivative of CLR1404, by pediatric solid cancer cells (rhabdomyosarcoma Rd, Rh-41; Ewing's sarcoma TC-71, TC-106; neuroblastoma SK-N-AS, NB1691; osteosarcoma SAOS-2; glioblastoma SJ-GBM2), and for reference, the adult cancer cell lines PC3 and MT-330, compared to normal human fibroblasts (HUFI), by flow cytometry. Mean±standard error (SE) from minimum 3 experiments per cell line, *P≤0.01. MFI, mean fluorescence intensity; RMS, rhabdomyosarcoma; EWS, Ewing's sarcoma; NB, neuroblastoma; OS, osteosarcoma; GB, glioblastoma, PC, prostate adenocarcinoma. Cells were plated at 5×10^5 cells/ml in triplicates in media containing 5 μM CLR1501 (fluorescent CLR1404). Mean fluorescence intensity corrected for auto-fluorescence was averaged from three experiments±standard deviation.
(§2) Each cell line (5×10^5 cells/ml) was incubated for 16-19 hours with 5 μM CLR1501, then washed with 10% FBS medium for 4 hours. Cells were then measured by flow cytometry (FACSCalibur, BD Biosciences) and analyzed using FlowJo 8.2 (Tree Star, Ashland, Oreg.). Mean fluorescence intensity (MFI) per cell was corrected for autofluorescence (FL1 index) and averaged from three experiments±standard deviation.

[2] = test system: pediatric solid tumor cells; test: CLR1501 uptake by flow cytometry in pediatric solid tumor cell lines; format: cell-based, human; details: 5 μM, 16-19 hours incubation, 4 hours wash; Rd, Rh-41, TC-71, TC-106, SK-N-AS, NB-1691, SAOS-2, SJ-GBM2 p<0.01; CHLA-20, Rh-30 p≤0.02
Source text: as §1, §2

[3] = test system: xenografted pediatric solid tumor tissue (Rh30, TC-71, CHLA-20, NB-1691); test: In vivo uptake of 124I-CLR1404 by PET/CT in xenografted mice; design: species or system mouse; details: NSG mice, 8-13 μCi/g via tail vein injection
Procedure: Specifically, […] with one of four different pediatric tumor cell lines (CHLA-20 (neuroblastoma), NB-1691 (neuroblastoma), TC-71 (Ewing sarcoma), and Rh-30 (rhabdomyosarcoma). For each of the sixteen xenografted mice, 100 μl cell suspension containing 3×10^6 tumor cells (>95% viability, passage 5-25) was inoculated into subcutaneous tissue of the left flank of a 6-8 week-old NSG mouse (NOD.Cg-Prdc^scidII2rg^tm1Wj1/SzJ, Jackson Laboratory, Bar Harbor, Me.). Once xenograft tumors measured a minimum of about 7×7 mm, the mice received ^124I-CLR1404 at 8-13 μCi/g via tail vein injection. After an uptake period, PET/CT imaging was performed on the mice at 5 and 6 time-points. Following image acquisition, the images were reconstructed, co-registered, resampled, rescaled, and corrected for partial volume effects (PVE), and masked.

[4] = test system: CHLA-20 neuroblastoma xenograft; test: Tumor growth rate, linear mixed effects model, CHLA-20 xenograft; format: in vivo, mouse; details: 3.5 μCi/g, excipient slope 0.13, P 0.0124
Procedure: (§3) Rh30, TC-71, TC-106, CHLA-20, NB-1691, and SAOS-2 subcutaneous flank xenografts were induced in mice, as described in Example 2 above. Tumors were measured twice weekly with calipers, and the tumor volume was calculated. When tumors reached a volume of approximately 50 mm^3, mice were randomly assigned to receive either ^131I-CLR1404 in doses of 3.5 μCi/g or an excipient (equimolar ^127I-CLR1404), and measurement of tumor size continued. Survival rates as a function of time were also observed in the xenografted mice.
(§4) A linear mixed effects analysis of predicted growth rate was performed using the tumor size data described above. The results are shown in Table 1 below, and in graphical form in FIG. 10.

[5] = test system: pediatric solid cancer xenografts; test: Tumor volume, survival and toxicity in pediatric solid cancer xenograft NSG models; format: in vivo, mouse; details: 3.5 μCi/g
Procedure: as §3

[6] = test system: SAOS-2 osteosarcoma xenograft; test: Tumor growth rate, linear mixed effects model, SAOS-2 xenograft; format: in vivo, mouse; details: 3.5 μCi/g, excipient slope 0.11, P <0.0001
Procedure: as §3, §4

[7] = test system: NB-1691 neuroblastoma xenograft; test: Tumor growth rate, linear mixed effects model, NB-1691 xenograft; format: in vivo, mouse; details: 3.5 μCi/g, excipient slope 0.15, P <0.0001
Procedure: as §3, §4

[8] = test system: TC-106 Ewing's sarcoma xenograft; test: Tumor growth rate, linear mixed effects model, TC-106 xenograft; format: in vivo, mouse; details: 3.5 μCi/g, excipient slope 0.26, P <0.0001
Procedure: as §3, §4

[9] = test system: Rh30 rhabdomyosarcoma xenograft; test: Tumor growth rate, linear mixed effects model, Rh30 xenograft; format: in vivo, mouse; details: 3.5 μCi/g, excipient slope 0.18, P <0.0001
Procedure: as §3, §4

[10] = test system: TC-71 Ewing's sarcoma xenograft; test: Tumor growth rate, linear mixed effects model, TC-71 xenograft; format: in vivo, mouse; details: 3.5 μCi/g, excipient slope 0.14, P <0.0003
Procedure: as §3, §4

SMILES: C[N+](C)(C)CCOP(=O)([O-])OCCCCCCCCCCCCCCCCCCc1ccc(C2=C3C=CC=[N+]3[B-](F)(F)n3cccc32)cc1 [CLR1501]
- CLR1501 uptake in normal cells [1]: much less uptake
- CLR1501 uptake (mean fluorescence intensity) versus normal pediatric fibroblast (HUFI) cells [2]: significantly higher

SMILES: C[N+](C)(C)CCOP(=O)([O-])OCCCCCCCCCCCCCCCCCCc1ccc([124I])cc1 [^124I-CLR1404]
- Uptake into xenografted tumor tissue (PET/CT) [3]: differential uptake

SMILES: C[N+](C)(C)CCOP(=O)([O-])OCCCCCCCCCCCCCCCCCCc1ccc([131I])cc1 [^131I-CLR1404]
- Slope log volume (prediction of the tumor growth rate) [4]: 0.09
- Toxicity ([5]; xenografted mice): low toxicity
- Mean tumor volumes versus excipient ([5]; Rh30, TC-71, CHLA-20 and NB-1691 xenografts): decreased mean tumor volumes
- Animal survival versus excipient ([5]; four groups, statistically significant in Ewing's sarcoma and rhabdomyosarcoma xenografts): extended animal survival
- Slope log volume (prediction of the tumor growth rate) [6]: 0.08
- Slope log volume (prediction of the tumor growth rate) [7]: 0.09
- Slope log volume (prediction of the tumor growth rate) [8]: 0.10
- Slope log volume (prediction of the tumor growth rate) [9]: 0.06
- Slope log volume (prediction of the tumor growth rate) [10]: 0.08
